{
  "source": "patent US7115281B2",
  "about": "“Processes for the preparation of oral dosage formulations of modafinil” (Ranbaxy Laboratories Limited, priority 2002, dated 2006)",
  "origin": "cited, not measured here",
  "key": {"[1]": {"assay": "not given", "remark": "listed apart in the source"}},
  "data": [
    {"molecule": "NC(=O)C[S+]([O-])C(c1ccccc1)c1ccccc1", "note": "(centres unmarked) [modafinil]", "values": [
      {"measurement": "Stability at higher temperatures", "result": "unstable"},
      {"measurement": "Solubility in water", "setting": "[1]", "result": "less than 1 mg/ml"}
    ]}
  ]
}
